Measured values as given in patent publication EP4470536A1, “COMPOUND FOR USE IN TREATING FIBRODYSPLASIA OSSIFICANS PROGRESSIVA (FOP)” (Queen's University At Kingston, priority 2023, dated 2024).

Key:
ectopic bone formation [1] = assay: Genetic mouse model of FOP, pinch injury-induced ectopic bone formation, micro-CT; format: in vivo, Acvr1^(cR206H/+);Pdgfra-Cre+ mice; conditions: for Mean ectopic bone volume D14 (mm^3) / Mean ectopic bone volume D14 [percent change from vehicle]: day 14; for Mean ectopic bone volume D22 (mm^3) / Mean ectopic bone volume D22 [percent change from vehicle]: day 22
Text: Acvr1^(cR206H/+) mice were obtained from the International Fibrodysplasia Ossificans Progressiva Association (IFOPA, North Kansas City, MO, USA). These animals harbour a Cre recombinase-inducible Acvr1 transgenic allele, which causes a switch from wild-type mouse ACVR1 protein expression to that of a chimeric mouse/human protein containing the R206H mutation seen in >95% of FOP patients. These animals were intercrossed with Pdgfra-Cre expressing mice (C57BL/6-Tg(PDGFRA-cre)1Clc/J mice, available through The Jackson Laboratory, Bar Harbor, ME, USA) which activates Cre recombination in fibro-adipogenic precursors, currently believed to be the cells of origin for FOP (Lees-Shepard, J.B., et al (2018) Nat Commun 9, 471.). Resulting study animals (ACVR1^(R206H/+);Pdgfra-Cre+) are susceptible to injury-induced ectopic bone formation. These animals were subjected to a bilateral gastrocnemius pinch procedure under anaesthesia, whereby a Halsted-mosquito hemostat (product#13008-12, Fine Science Tools Inc., North Vancouver, BC, Canada) is used to compress the gastrocnemius muscle, at its widest part, to approximately 2mm for 5s, and then released. This injury elicits robust ectopic bone formation within 10-14 days (for description of procedure see, Lyu, H., et al. (2021). Biomedicines 9(6).). […] Micro-CT imaging was performed on days 14 (under anaesthesia) and at study termination (day 22), as outlined above in Example 7. Sites of ectopic bone formation in the area of the injury were volumetrically quantified using Class stratification in Imalytics Preclinical software (version 3.0.2.3, Gremse-IT GmbH, Aachen, Germany) from DICOM renderings. Using this model, the utility of compound 1 in inhibiting bone formation in a genetic mouse model of FOP was illustrated (see Figure 11 and Table 3 below). Table 3. Effect of different doses of compound 1 on mean ectopic bone volume at 14 and 22 days following initiation of treatment

ectopic bone formation [2] = assay: Surgical mouse model of heterotopic ossification (rhBMP2-soaked collagen disk), micro-CT; format: in vivo, CD-1 mouse; conditions: for Mean bone volume (mm^3) / percent change in HO volume from vehicle mean (%): oral gavage, 13 days, Day 14
Method: Heterotopic ossification (HO) driven by Bone Morphogenetic Protein (BMP) signaling has been used as a surrogate model for testing the effectiveness of drugs for treating Fibrodysplasia Ossificans Progressiva (FOP) (see, for example, Shimono K., et al. (2011). Nat Med 17, 454-460.). Collagen disks of 1mm in diameter were punched from a thin collagen foam matrix (Avitene™ Ultrafoam™ Collagen Hemostat product #1050050 lot #WBDP0038, from BD, Franklin Lakes, NJ, USA). Disks were impregnated with 1µg total of recombinant human BMP-2 (GenScript, Piscataway, NJ, USA, catalog #Z02913, lot #P50031712) on the day of surgery (5µl of 200ng/µL BMP-2, reconstituted in 20mM acetic acid solution). The rhBMP2-soaked collagen disk was surgically implanted into a small pocket made in the left gastrocnemius muscle of a 6-8 week-old male CD-1 mouse. Beginning on the day following surgery, mice were administered varying doses of compound 1 by oral gavage once daily (QD) or twice daily (every 12h; BID) for 13 days. Doses administered were: vehicle (Corn oil, QD (5M) and BID (3M) dosing or 3% DMSO in Corn oil (2M)), compound 1 18 mg/kg BID, 18 mg/kg QD, 6 mg/kg BID, 4.5 mg/kg BID, and 2 mg/kg BID (6M per group). Palovarotene high and low doses were used as comparators (1.76 mg/kg (4M) and 0.88 mg/kg QD (6M)). The palovarotene high and low doses were selected based on a study for palovarotene (Inubushi, T., et al. (2018). "Palovarotene Inhibits Osteochondroma Formation in a Mouse Model of Multiple Hereditary Exostoses." J Bone Miner Res 33(4): 658-666.), using oral treatment of mice. The inventors also verified the dose selection based on pharmacokinetic (PK) data generated in-house for palovarotene IP (intraperitoneal) and PO (oral) treatment by using the doses for IP treatment from Lees-Shepard, J. B., et al. (2018).
At the study endpoint (Day 14: 16-30 hours after final compound treatment) left hindlimbs were removed and submitted to micro-CT (micro-computed tomography) imaging. Using this preclinical surgical model, the amount of resulting ectopic bone formation after 14 days was visualized for each of the treatment groups (Figure 6). The highly enhancing regions seen within the gastrocnemius muscle corresponded to the amount of ectopic bone formation generated at the site of collagen disk implantation, following 14 days of vehicle or drug treatment.
The hindlimbs obtained in Example 6 above were submitted to micro-CT imaging. CT images were acquired using a VECTor^4CT pre-clinical scanner (MILabs B.V., Utrecht, Netherlands) equipped with a cone beam X-ray CT system. Scans were carried out with an acceleration voltage of 50 kVp and an X-ray tube current of 430 µA in accurate focus mode to obtain 3600 projections over a 360° scan. With a 40 ms exposure time per step, the total scan procedure took about 5 minutes with an estimated radiation dose of 3077 mGy. CT images were consequently processed using MILabs reconstruction software implementing a voxel size of 20 µm and a Hann projection filter of 25 µm to generate 3-dimensional CT images. For quantification, CT images were converted to DICOM® files using PMOD 3.9 software (PMOD Technologies Ltd., Zurich, Switzerland) for rendering using RadiAnt DICOM Viewer 4.2 software (Medixant, Poznań, Poland). The region-of-interest for all hindlimbs, reconstructed from DICOM files, was defined by outlining sites of ectopic ossification. Analysis of total ectopic bone volume was conducted via automated processes using the AnalyzePro software with the Bone Microarchitecture Analysis (BMA) add-on (AnalyzeDirect, Overland Park, Kansas). This software generates bone volume measurements from the defined area, as described by Bouxsein et al (2010). Journal of Bone and Mineral Research, 25(7), 1468-1486. Using this preclinical surgical model, the ability of compound 1 to inhibit HO (percentage from vehicle), as compared to palovarotene, was assessed and is shown in Figure 7 and in Table 1 below.

With `CC(C)(C)c1cccc(-c2cc3cc(/C=C/C(=O)O)ccc3[nH]2)c1` [Compound 1, (E)-3-(2-(3-(tert-butyl)phenyl)-1H-indol-5-yl)acrylic acid] the “Mean ectopic bone volume D14 (mm^3)” value (ectopic bone formation [1]; 2mg/kg BID) was 2.92 ± 3.76 mm^3, the “Mean ectopic bone volume D14 [percent change from vehicle]” value (ectopic bone formation [1]; 2mg/kg BID) was -76.9% and the “Mean ectopic bone volume D22 (mm^3)” value (ectopic bone formation [1]; 2mg/kg BID) was 2.62 ± 4.36 mm^3. The “Mean ectopic bone volume D22 [percent change from vehicle]” value (ectopic bone formation [1]; 2mg/kg BID) was -77.9%, the “Mean ectopic bone volume D14 (mm^3)” value (ectopic bone formation [1]; 4mg/kg BID) was 0.20 ± 0.47 mm^3 and the “Mean ectopic bone volume D14 [percent change from vehicle]” value (ectopic bone formation [1]; 4mg/kg BID) was -98.5%. For the same molecule, the “Mean ectopic bone volume D22 (mm^3)” value (ectopic bone formation [1]; 4mg/kg BID) was 0.00 ± 0.00 mm^3, the “Mean ectopic bone volume D22 [percent change from vehicle]” value (ectopic bone formation [1]; 4mg/kg BID) was -100% and the “Mean ectopic bone volume D14 (mm^3)” value (ectopic bone formation [1]; 7.5mg/kg BID) was 0.31 ± 0.45 mm^3. For the same molecule, the “Mean ectopic bone volume D14 [percent change from vehicle]” value (ectopic bone formation [1]; 7.5mg/kg BID) was -97.5%, the “Mean ectopic bone volume D22 (mm^3)” value (ectopic bone formation [1]; 7.5mg/kg BID) was 0.07 ± 0.18 mm^3 and the “Mean ectopic bone volume D22 [percent change from vehicle]” value (ectopic bone formation [1]; 7.5mg/kg BID) was -99.4%. For the same molecule, the “Mean ectopic bone volume D14 (mm^3)” value (ectopic bone formation [1]; 10mg/kg BID) was 1.28 ± 2.23 mm^3, the “Mean ectopic bone volume D14 [percent change from vehicle]” value (ectopic bone formation [1]; 10mg/kg BID) was -89.9% and the “Mean ectopic bone volume D22 (mm^3)” value (ectopic bone formation [1]; 10mg/kg BID) was 1.40 ± 2.65 mm^3. The “Mean ectopic bone volume D22 [percent change from vehicle]” value (ectopic bone formation [1]; 10mg/kg BID) was -88.2%, the “Mean bone volume (mm^3)” value (ectopic bone formation [2]; 2mg/kg BID) was 0.920 mm^3 and the “percent change in HO volume from vehicle mean (%)” value (from here on “percent change in HO volume … (%)”) (ectopic bone formation [2]; 2mg/kg BID) was -52.5%. For the same molecule, the “Mean bone volume (mm^3)” value (ectopic bone formation [2]; 4.5mg/kg BID) was 1.205 mm^3, the “percent change in HO volume … (%)” value (ectopic bone formation [2]; 4.5mg/kg BID) was -37.8% and the “Mean bone volume (mm^3)” value (ectopic bone formation [2]; 6mg/kg BID) was 0.212 mm^3. The “percent change in HO volume … (%)” value (ectopic bone formation [2]; 6mg/kg BID) was -89.1%, the “Mean bone volume (mm^3)” value (ectopic bone formation [2]; 18mg/kg BID) was 0.035 mm^3 and the “percent change in HO volume … (%)” value (ectopic bone formation [2]; 18mg/kg BID) was -98.2%. For the same molecule, the “Mean bone volume (mm^3)” value (ectopic bone formation [2]; 18mg/kg QD) was 0.436 mm^3, the “percent change in HO volume … (%)” value (ectopic bone formation [2]; 18mg/kg QD) was -77.5% and the ectopic bone formation (ectopic bone formation [2]; 2 to 18 mg/kg, versus vehicle, 14 days) was “dose-dependent decrease in ectopic bone formation”.
